PubChem BioAssay AID248 (DTP/NCI, 2004)
Values joined by “and” are separate entries in the source; they are usually repeats but may differ in a detail not shown here. Equal values may be shown once. Toxic doses and inconclusive results are not listed. Cut-off read from the data, not from the text of the source: active = T/C of 150% or more; inactive = T/C below 125%.

System: L1210 leukemia ip in BDF1 mice, survival T/C
Test: NCI In Vivo Anticancer Drug Screen. Data for tumor model L1210 Leukemia (intraperitoneal) in B6D2F1 (BDF1) mice
Conditions: endpoint: mean survival time, higher = longer survival
Method in brief: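 Survival endpoint. Drug-treated group vs vehicle group, expressed as T divided by C. Tumor passaged by transplantation.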

[1] = dose: 100.0 mg/kg/injection, schedule: Q01DX001 (ip), vehicle: Klucel (hydroxypropylcellulose) (HPC)
[2] = dose: 200.0 mg/kg/injection, schedule: Q01DX001 (ip), vehicle: Klucel (hydroxypropylcellulose) (HPC)
[3] = dose: 400.0 mg/kg/injection, schedule: Q01DX001 (ip), vehicle: Klucel (hydroxypropylcellulose) (HPC)
[4] = dose: 100.0 mg/kg/injection, schedule: Q01DX009 (ip), vehicle: saline with Tween-80
[5] = dose: 200.0 mg/kg/injection, schedule: Q01DX009 (ip), vehicle: saline with Tween-80
[6] = dose: 100.0 mg/kg/injection, schedule: Q01DX009 (ip), vehicle: carboxymethylcellulose (CMC)
[7] = dose: 100.0 mg/kg/injection, schedule: Q04DX002 (ip), vehicle: Klucel (hydroxypropylcellulose) (HPC)
[8] = dose: 100.0 mg/kg/injection, schedule: Q04DX003 (ip), vehicle: carboxymethylcellulose (CMC)
[9] = dose: 200.0 mg/kg/injection, schedule: Q01DX009 (ip), vehicle: carboxymethylcellulose (CMC)
[10] = dose: 200.0 mg/kg/injection, schedule: Q04DX002 (ip), vehicle: Klucel (hydroxypropylcellulose) (HPC)
[11] = dose: 200.0 mg/kg/injection, schedule: Q04DX003 (ip), vehicle: carboxymethylcellulose (CMC)
[12] = dose: 400.0 mg/kg/injection, schedule: Q04DX002 (ip), vehicle: Klucel (hydroxypropylcellulose) (HPC)
[13] = dose: 400.0 mg/kg/injection, schedule: Q04DX003 (ip), vehicle: carboxymethylcellulose (CMC)
[14] = dose: 100.0 mg/kg/injection, schedule: Q04DX003 (ip), vehicle: Klucel (hydroxypropylcellulose) (HPC)
[15] = dose: 200.0 mg/kg/injection, schedule: Q04DX003 (ip), vehicle: Klucel (hydroxypropylcellulose) (HPC)
[16] = dose: 400.0 mg/kg/injection, schedule: Q04DX003 (ip), vehicle: Klucel (hydroxypropylcellulose) (HPC)

Measured: T/C

CC(=O)OC1C=CCC23C(=O)C=CC(=O)C12C(=O)c1ccccc1C3=O (stereo not drawn)
inactive: dose: 0.25 mg/kg/injection, schedule: Q04DX003 (ip), vehicle: water 95 % of control | dose: 0.5 mg/kg/injection, schedule: Q04DX003 (ip), vehicle: water 100 % of control | dose: 1.0 mg/kg/injection, schedule: Q04DX003 (ip), vehicle: water 102 % of control | dose: 2.0 mg/kg/injection, schedule: Q04DX003 (ip), vehicle: water 97 % of control | dose: 4.0 mg/kg/injection, schedule: Q04DX003 (ip), vehicle: water 102 % of control | dose: 8.0 mg/kg/injection, schedule: Q04DX003 (ip), vehicle: water 100 % of control | dose: 16.0 mg/kg/injection, schedule: Q04DX003 (ip), vehicle: saline 102 % of control | dose: 16.0 mg/kg/injection, schedule: Q04DX003 (ip), vehicle: water 97 % of control | dose: 32.0 mg/kg/injection, schedule: Q04DX003 (ip), vehicle: saline 100 % of control | dose: 64.0 mg/kg/injection, schedule: Q04DX003 (ip), vehicle: saline 100 % of control

O=C(/C=C/c1ccccc1)Nc1cc([N+](=O)[O-])ccc1O
inactive: dose: 50.0 mg/kg/injection, schedule: Q01DX009 (ip), vehicle: Klucel (hydroxypropylcellulose) (HPC) 97 % of control | dose: 100.0 mg/kg/injection, schedule: Q01DX009 (ip), vehicle: Klucel (hydroxypropylcellulose) (HPC) 94 % of control and 87 % of control | dose: 200.0 mg/kg/injection, schedule: Q01DX009 (ip), vehicle: Klucel (hydroxypropylcellulose) (HPC) 94 % of control and 97 % of control | dose: 400.0 mg/kg/injection, schedule: Q01DX009 (ip), vehicle: Klucel (hydroxypropylcellulose) (HPC) 87 % of control

CCCCNC(=O)NS(=O)(=O)c1ccc(C)cc1
inactive: [1] 96 % of control | [2] 96 % of control | [3] 89 % of control

CCCC(=O)OC(C(=O)OCC)c1ccccc1 (stereo not drawn)
inactive: [4] 98 % of control | [5] 106 % of control | dose: 400.0 mg/kg/injection, schedule: Q01DX009 (ip), vehicle: saline with Tween-80 96 % of control

O=C(Nc1cccc2ccccc12)Oc1ccc(C2CCCCC2)cc1
inactive: [6] 97 % of control and 90 % of control | [7] 89 % of control | dose: 100.0 mg/kg/injection, schedule: Q04DX002 (ip), vehicle: carboxymethylcellulose (CMC) 100 % of control and 101 % of control | [8] 101 % of control | [9] 87 % of control and 92 % of control | [10] 96 % of control | dose: 200.0 mg/kg/injection, schedule: Q04DX002 (ip), vehicle: carboxymethylcellulose (CMC) 101 % of control and 90 % of control | [11] 100 % of control | dose: 400.0 mg/kg/injection, schedule: Q01DX009 (ip), vehicle: carboxymethylcellulose (CMC) 97 % of control and 90 % of control | [12] 101 % of control | dose: 400.0 mg/kg/injection, schedule: Q04DX002 (ip), vehicle: carboxymethylcellulose (CMC) 95 % of control and 90 % of control | [13] 92 % of control

Cc1ccc(C(=O)C=Nc2ccc(Br)cc2)cc1
inactive: [1] 104 % of control | [2] 95 % of control | [3] 112 % of control

C/C(=N/N(C)C)c1ccccn1
inactive: [4] 104 % of control | dose: 100.0 mg/kg/injection, schedule: Q04DX003 (ip), vehicle: saline with Tween-80 91 % of control | [5] 95 % of control | dose: 200.0 mg/kg/injection, schedule: Q04DX003 (ip), vehicle: saline with Tween-80 95 % of control | dose: 400.0 mg/kg/injection, schedule: Q04DX003 (ip), vehicle: saline with Tween-80 106 % of control

Cc1cc(C)c([N+](=O)[O-])c(C)c1C(=O)C(C)C
inactive: dose: 100.0 mg/kg/injection, schedule: Q01DX009 (ip), vehicle: other 105 % of control | [14] 96 % of control | dose: 200.0 mg/kg/injection, schedule: Q01DX009 (ip), vehicle: other 101 % of control | [15] 100 % of control | dose: 400.0 mg/kg/injection, schedule: Q01DX009 (ip), vehicle: other 95 % of control | [16] 94 % of control

CCOC(=N)c1ccc(P(=O)(O)O)cc1
inactive: dose: 75.0 mg/kg/injection, schedule: Q01DX001 (ip), vehicle: saline 97 % of control | dose: 150.0 mg/kg/injection, schedule: Q01DX001 (ip), vehicle: saline 96 % of control | dose: 300.0 mg/kg/injection, schedule: Q01DX001 (ip), vehicle: saline 102 % of control

CN(C)CCC(=O)c1ccccc1
inactive: dose: 12.5 mg/kg/injection, schedule: Q01DX009 (ip), vehicle: saline 101 % of control | dose: 25.0 mg/kg/injection, schedule: Q01DX009 (ip), vehicle: saline 101 % of control | dose: 25.0 mg/kg/injection, schedule: Q04DX003 (ip), vehicle: saline 105 % of control | dose: 50.0 mg/kg/injection, schedule: Q01DX001 (ip), vehicle: saline 103 % of control | dose: 50.0 mg/kg/injection, schedule: Q01DX009 (ip), vehicle: saline 98 % of control | dose: 50.0 mg/kg/injection, schedule: Q04DX003 (ip), vehicle: saline 101 % of control | dose: 100.0 mg/kg/injection, schedule: Q01DX001 (ip), vehicle: saline 103 % of control | dose: 100.0 mg/kg/injection, schedule: Q04DX003 (ip), vehicle: saline 100 % of control

COc1cccc(C(=O)c2cc(O)c3c(c2O)CC(C(C)=O)CC3=O)c1C#N (stereo not drawn)
inactive: dose: 50.0 mg/kg/injection, schedule: Q01DX001 (ip), vehicle: saline with Tween-80 100 % of control | dose: 100.0 mg/kg/injection, schedule: Q01DX001 (ip), vehicle: saline with Tween-80 94 % of control | dose: 200.0 mg/kg/injection, schedule: Q01DX001 (ip), vehicle: saline with Tween-80 98 % of control

Oc1c(Cl)cc(Cl)cc1/C=N\Nc1ccccn1
inactive: [1] 92 % of control | [2] 95 % of control | [3] 95 % of control

O=C(O)C1CC1(Br)Br (stereo not drawn)
inactive: dose: 100.0 mg/kg/injection, schedule: Q04DX003 (ip), vehicle: acetone 87 % of control

CCCNS(=O)(=O)c1ccc(C(N)=S)cc1
inactive: [1] 103 % of control | [2] 108 % of control | [3] 98 % of control

CNC(=O)Oc1c(C)cccc1C
inactive: dose: 100.0 mg/kg/injection, schedule: Q04DX002 (ip), vehicle: saline with Tween-80 103 % of control | dose: 200.0 mg/kg/injection, schedule: Q04DX002 (ip), vehicle: saline with Tween-80 106 % of control | dose: 400.0 mg/kg/injection, schedule: Q04DX002 (ip), vehicle: saline with Tween-80 95 % of control

Cn1c2c(c(=O)n(C)c1=O)CCC(=O)N2
inactive: [7] 106 % of control | [10] 98 % of control | [12] 92 % of control

C/C(=N\O)c1ccccc1C
inactive: [14] 101 % of control | [15] 106 % of control | [16] 93 % of control

CCCCCCCCCCCCCC(=O)N(CC)CC
inactive: dose: 100.0 mg/kg/injection, schedule: Q01DX001 (ip), vehicle: carboxymethylcellulose (CMC) 104 % of control | [6] 95 % of control and 100 % of control | [8] 98 % of control | dose: 200.0 mg/kg/injection, schedule: Q01DX001 (ip), vehicle: carboxymethylcellulose (CMC) 94 % of control | [9] 101 % of control and 107 % of control | [11] 92 % of control | dose: 400.0 mg/kg/injection, schedule: Q01DX001 (ip), vehicle: carboxymethylcellulose (CMC) 96 % of control | [13] 103 % of control

O=c1[nH]c(C(F)(F)F)nc2[nH]ncc12
inactive: dose: 29.0 mg/kg/injection, schedule: Q01DX Z (ip), vehicle: methylcellulose (MC) 102 % of control | dose: 45.0 mg/kg/injection, schedule: Q01DX Z (ip), vehicle: methylcellulose (MC) 106 % of control | dose: 67.0 mg/kg/injection, schedule: Q01DX Z (ip), vehicle: methylcellulose (MC) 108 % of control | dose: 100.0 mg/kg/injection, schedule: Q01DX Z (ip), vehicle: methylcellulose (MC) 93 % of control
